Results: patent publication US12071425B2 (Genentech, Inc., priority 2018, dated 2024)

Target: kinase domain of IRE1 alpha (His-tagged kinase dead construct KR, AA G547-L977, D688N) (Homo sapiens (Human), UniProt O75460, D688N)
Assay: IRE1α TR-FRET competition binding assay
Settings: competition with Kinase Tracer 236, 0.1 μM; one hour at room temperature
In short: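 Compound displacement of an ATP-site fluorescent tracer (0.1 μM final) measured by TR-FRET after 1 h at room temperature. Protein, a His-tagged D688N kinase/RNase construct from Sf9 cells (0.006 μM final), was pre-bound 1 h at 4° C to Eu anti-His antibody (0.002 μM) in pH 7.5 HEPES buffer.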

kinase domain of IRE1 alpha (His-tagged kinase dead construct KR, AA G547-L977, D688N), sequence (O75460 547-977 D688N): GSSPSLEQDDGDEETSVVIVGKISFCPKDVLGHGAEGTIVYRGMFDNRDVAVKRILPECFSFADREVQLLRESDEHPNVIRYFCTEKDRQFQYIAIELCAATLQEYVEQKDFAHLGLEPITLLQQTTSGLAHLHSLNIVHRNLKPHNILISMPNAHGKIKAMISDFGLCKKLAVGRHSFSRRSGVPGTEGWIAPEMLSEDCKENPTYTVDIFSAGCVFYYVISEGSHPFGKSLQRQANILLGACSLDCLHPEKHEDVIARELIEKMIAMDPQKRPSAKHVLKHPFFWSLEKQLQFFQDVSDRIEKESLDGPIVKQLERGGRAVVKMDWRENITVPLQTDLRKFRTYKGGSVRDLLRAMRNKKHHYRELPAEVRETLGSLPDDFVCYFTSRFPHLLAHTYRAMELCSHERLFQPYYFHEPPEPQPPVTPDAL

SMILES	IC50 [nM]
O=S(=O)(Cc1ccccc1)Nc1c(F)cc(Oc2ncccc2-c2ccnc(CC3CCCNC3)n2)c(F)c1F (single isomer, unassigned) [Compound 199, 1-Phenyl-N-(2,3,6-trifluoro-4-((3-(2-(3-piperidylmethyl)pyrimidin-4-yl)-2-pyridyl)oxy)phenyl)methanesulfonamide]	110
O=S(=O)(CC1CCC1(F)F)Nc1c(F)cc(Oc2ncccc2-c2ccnc(N[C@@H]3CNC[C@@H](F)C3)n2)c(F)c1F (single isomer, unassigned) [Compound 265]	1.4
NC(=O)c1ccc(CS(=O)(=O)Nc2c(F)cc(Oc3ncccc3-c3ccnc(N[C@@H]4CNC[C@@H](F)C4)n3)c(F)c2F)c(F)c1 [Compound 361, 3-Fluoro-4-[[2,3,6-trifluoro-4-[[3-[2-[[(3S,5S)-5-fluoro-3-piperidyl]amino]pyrimidin-4-yl]-2-pyridyl]oxy]phenyl]sulfamoylmethyl]benzamide]	0.3
O=S(=O)(Cc1ccccc1)Nc1c(F)cc(Oc2ncccc2-c2ccnc(NC3CNCC4(C3)CC4(F)F)n2)c(F)c1F (single isomer, unassigned) [Compound 299, N-(4-((3-(2-((1,1-Difluoro-5-azaspiro[2.5]octan-7-yl)amino)pyrimidin-4-yl)pyridin-2-yl)oxy)-2,3,6-trifluorophenyl)-1-phenylmethanesulfonamide]	0.38
O=S(=O)(Nc1c(F)cc(Oc2ncccc2-c2ccnc(N[C@@H]3CNC[C@@H](F)C3)n2)c(F)c1F)N1CCCC1 [Compound 258, N-(2,3,6-Trifluoro-4-((3-(2-(((3S,5S)-5-fluoropiperidin-3-yl)amino)pyrimidin-4-yl)pyridin-2-yl)oxy)phenyl)pyrrolidine-1-sulfonamide]	5.2
Cc1cc(NS(=O)(=O)Cc2c(F)cccc2F)c(F)c(F)c1Oc1ncccc1-c1ccnc(N[C@@H]2CNC[C@@H](F)C2)n1 [Compound 283, N-(2,3-Difluoro-4-((3-(2-(((3S,5S)-5-fluoropiperidin-3-yl)amino)pyrimidin-4-yl)pyridin-2-yl)oxy)-5-methylphenyl)-1-(2,6-difluorophenyl)methanesulfonamide]	0.41
Cc1c(Oc2ncccc2-c2ccnc(N[C@@H]3CNC[C@@](C)(F)C3)n2)cc(F)c(NS(=O)(=O)Cc2ccccc2)c1F [Compound 292, N-(2,6-Difluoro-4-((3-(2-(((3S,5S)-5-fluoro-5-methylpiperidin-3-yl)amino)pyrimidin-4-yl)pyridin-2-yl)oxy)-3-methylphenyl)-1-phenylmethanesulfonamide]	0.33
O=S(=O)(Cc1cccc(C(F)(F)F)c1)Nc1c(F)cc(Oc2ncccc2-c2ccnc(N[C@@H]3CNC[C@@H](F)C3)n2)c(F)c1F [Compound 374, N-(2,3,6-Trifluoro-4-((3-(2-(((3S,5S)-5-fluoropiperidin-3-yl)amino)pyrimidin-4-yl)pyridin-2-yl)oxy)phenyl)-1-(3-(trifluoromethyl)phenyl)methanesulfonamide]	0.2
C[C@@H](c1ccccc1)S(=O)(=O)Nc1c(F)cc(Oc2ncccc2-c2ccnc(N[C@@H]3CNC[C@@H](F)C3)n2)c(F)c1F (single isomer, unassigned) [Compound 387, (*S)-1-Phenyl-N-(2,3,6-trifluoro-4-((3-(2-(((3S,5S)-5-fluoropiperidin-3-yl)amino)pyrimidin-4-yl)pyridin-2-yl)oxy)phenyl)ethane-1-sulfonamide]	0.2
O=S(=O)(Cc1ccccc1F)Nc1cc(Cl)c(Oc2ncccc2-c2ccnc(N[C@@H]3CNC[C@@H](F)C3)n2)c(F)c1F [Compound 340, N-(5-Chloro-2,3-difluoro-4-((3-(2-(((3S,5S)-5-fluoropiperidin-3-yl)amino)pyrimidin-4-yl)pyridin-2-yl)oxy)phenyl)-1-(2-fluorophenyl)methanesulfonamide]	7.5
COCC1CNCC(Nc2nccc(-c3cccnc3Oc3cc(F)c(NS(=O)(=O)Cc4ccccc4)c(F)c3F)n2)C1 (single isomer, unassigned) [Compound 331, 1-Phenyl-N-(2,3,6-trifluoro-4-((3-(2-((5-(methoxymethyl)piperidin-3-yl)amino)pyrimidin-4-yl)pyridin-2-yl)oxy)phenyl)methanesulfonamide]	0.82
C[C@@]1(F)CNC[C@@H](Nc2nccc(-c3cccnc3Oc3cc(F)c(NS(=O)(=O)Cc4ccc(F)cc4F)c(F)c3F)n2)C1 [Compound 281, 1-(2,4-Difluorophenyl)-N-(2,3,6-trifluoro-4-((3-(2-(((3S,5S)-5-fluoro-5-methylpiperidin-3-yl)amino)pyrimidin-4-yl)pyridin-2-yl)oxy)phenyl)methanesulfonamide]	0.34
O=S(=O)(Cc1ccc(F)c(Cl)c1)Nc1c(F)cc(Oc2ncccc2-c2ccnc(N[C@@H]3CNC[C@@H](F)C3)n2)c(F)c1F [Compound 366, 1-(3-Chloro-4-fluoro-phenyl)-N-[2,3,6-trifluoro-4-[[3-[2-[[(3S,5S)-5-fluoro-3-piperidyl]amino]pyrimidin-4-yl]-2-pyridyl]oxy]phenyl]methanesulfonamide]	0.2
O=S(=O)(Nc1c(F)cc(Oc2ncccc2-c2ccnc(N[C@@H]3CNC[C@@H](F)C3)n2)c(F)c1F)C1CCCCC1 [Compound 368, N-(2,3,6-Trifluoro-4-((3-(2-(((3S,5S)-5-fluoropiperidin-3-yl)amino)pyrimidin-4-yl)pyridin-2-yl)oxy)phenyl)cyclohexanesulfonamide]	0.2
O=S(=O)(Cc1ccc(C(F)(F)F)nc1)Nc1c(F)cc(Oc2ncccc2-c2ccnc(N[C@@H]3CNC[C@@H](F)C3)n2)c(F)c1F [Compound 254, N-(2,3,6-Trifluoro-4-((3-(2-(((3S,5S)-5-fluoropiperidin-3-yl)amino)pyrimidin-4-yl)pyridin-2-yl)oxy)phenyl)-1-(6-(trifluoromethyl)pyridin-3-yl)methanesulfonamide]	0.62
Cc1cc(Oc2ncccc2-c2ccnc(N[C@@H]3CNC[C@@](C)(F)C3)n2)c(F)c(F)c1NS(=O)(=O)Cc1ccccc1 [Compound 279, N-(2,3-Difluoro-4-((3-(2-(((3S,5S)-5-fluoro-5-methylpiperidin-3-yl)amino)pyrimidin-4-yl)pyridin-2-yl)oxy)-6-methylphenyl)-1-phenylmethanesulfonamide]	0.23

Other lines, results leading:

IC50 [nM]	SMILES
11	O=S(=O)(Nc1ccc(F)c(Oc2ncccc2-c2ccnc(N[C@H]3CCCNC3)n2)c1)c1ccccc1Cl [Compound 128, (S)-2-Chloro-N-(4-fluoro-3-((3-(2-(piperidin-3-ylamino)pyrimidin-4-yl)pyridin-2-yl)oxy)phenyl)benzenesulfonamide]
38	O=S(=O)(Cc1ccccc1)Nc1ccc(Oc2ncccc2-c2ccnc(NC3CCNCC3)n2)c(F)c1F [Compound 180, N-(2,3-difluoro-4-((3-(2-(4-piperidylamino)pyrimidin-4-yl)-2-pyridyl)oxy)phenyl)-1-phenyl-methanesulfonamide]
4.9	N#Cc1ccc(CS(=O)(=O)Nc2ccc(Oc3ncccc3-c3ccnc(N[C@H]4CCCNC4)n3)c(F)c2F)cc1 [Compound 250, (S)-1-(4-Cyanophenyl)-N-(2,3-difluoro-4-((3-(2-(piperidin-3-ylamino)pyrimidin-4-yl)pyridin-2-yl)oxy)phenyl)methanesulfonamide]
14	O=S(=O)(Cc1ccccn1)Nc1ccc(Oc2ncccc2-c2ccnc(N[C@H]3CCCNC3)n2)c(F)c1F [Compound 238, (S)—N-(2,3-Difluoro-4-(3-(2-(piperidin-3-ylamino)pyrimidin-4-yl)pyridin-2-yloxy)phenyl)-1-(pyridin-2-yl)methanesulfonamide]
490	O=C(NCc1cccc(Oc2ncccc2-c2ccnc(N[C@H]3CCCNC3)n2)c1F)C1CC1 [Compound 197, (S)—N-(2-Fluoro-3-((3-(2-(piperidin-3-ylamino)pyrimidin-4-yl)pyridin-2-yl)oxy)benzyl)cyclopropanecarboxamide]
400	CN=S(=O)(Cc1ccccc1)Nc1ccc(Oc2ncccc2-c2ccnc(N[C@H]3CCCNC3)n2)c(F)c1F (stereo partly drawn) [Compound 274, N-(2,3-difluoro-4-((3-(2-(((S)-piperidin-3-yl)amino)pyrimidin-4-yl)pyridin-2-yl)oxy)phenyl)-N′-methyl-1-phenylmethanesulfonimidamide]
4.3	Cc1c(Oc2ncccc2-c2ccnc(N[C@@H]3CNC[C@@H](F)C3)n2)cc(F)c(NS(=O)(=O)Cc2ccccc2)c1F [Compound 179, N-(2,6-difluoro-4-((3-(2-(((3S,5S)-5-fluoro-3-piperidyl)amino)pyrimidin-4-yl)-2-pyridyl)oxy)-3-methyl-phenyl)-1-phenyl-methanesulfonamide]
67	CN1CCC(Nc2nccc(-c3cccnc3Oc3ccc(NS(=O)(=O)Cc4ccccc4)c(F)c3F)n2)CC1 [Compound 168, N-(2,3-difluoro-4-((3-(2-((1-methylpiperidin-4-yl)amino)pyrimidin-4-yl)pyridin-2-yl)oxy)phenyl)-1-phenylmethanesulfonamide]
370	CCCS(=O)(=O)Nc1ccc(F)c(Oc2ncccc2-c2ccnc(N[C@H]3CCCNC3)n2)c1 [Compound 127, (S)-N-(4-fluoro-3-((3-(2-(piperidin-3-ylamino)pyrimidin-4-yl)pyridin-2-yl)oxy)phenyl)propane-1-sulfonamide]
5.1	Cc1cc(NS(=O)(=O)Cc2ccccc2)c(F)cc1Oc1ncccc1-c1ccnc(N[C@H]2CCCNC2)n1 [Compound 158, (S)-N-(2-fluoro-5-methyl-4-(3-(2-(piperidin-3-ylamino)pyrimidin-4-yl)pyridin-2-yloxy)phenyl)(phenyl)methanesulfonamide]
1	O=S(=O)(Nc1ccc(Oc2ncccc2-c2ccnc(N[C@H]3CCCNC3)n2)c(F)c1F)C1c2ccccc2-c2ccccc21 [Compound 381, (S)—N-(2,3-Difluoro-4-((3-(2-(piperidin-3-ylamino)pyrimidin-4-yl)pyridin-2-yl)oxy)phenyl)-9H-fluorene-9-sulfonamide]
